# Data as given in patent US12344606B2, “Next-generation modulators of stimulator of interferon genes (STING)” (RYVU THERAPEUTICS S.A., priority 2019, dated 2025).
# Tests used:
# human STING = human STING (Homo sapiens, UniProt Q86WV6); experiment: Fluorescence Thermal Shift assay (hSTING FTS binding assay); settings: STING 0.1 mg/ml, 20 min preincubation, SyproOrange
# Procedure: Compounds of the present invention were tested for binding to human STING in Fluorescence Thermal Shift assay. STING was preincubated with the compounds for 20 minutes in 50 mM Hepes, 150 mM NaCl, pH 7.5 in 16 μl volume, following by adding 4 μl of SyproOrange dye dilution (ThermoFisher, cat no. S-6651). Final STING concentration was 0.1 mg/ml. Thermal unfolding was performed in Real-Time PCR QuantStudio 6 Flex System (Applied Biosystems), from 25 to 99° C., with continuous ramp mode and ramp rate 0.033° C./s. The data were analyzed using Protein Thermal Shift Software (ThermoFisher).
# [1] = tested on: interferon regulatory factor (IRF) pathway in THP-1 dual cells; experiment: THP-1 Dual reporter assay, IRF pathway (luciferase); format: cell-based; settings: Homo sapiens, THP1-Dual; 18 h stimulation, luminescence
# Procedure: (§1) Compounds of the present invention were tested for their activity using THP-1 dual cells (Invivogen, cat no. thpd-nfis) allowing for simultaneous study of NF-κB pathway and the interferon regulatory factor (IRF) pathway. THP-1 dual cells contain luciferase reporter gene under the control of an ISG54 (interferon-stimulated gene) minimal promoter in conjunction with five interferon-stimulated response elements and a secreted embryonic alkaline phosphatase reporter gene under the control an IFN (interferon)-β minimal promoter fused to five copies of the NF-κB consensus transcriptional response element with three copies of the c-Rel binding site. Following 18 h of stimulation with STING agonist, medium was collected and transferred onto fresh cell culture plate. To verify activity of the IRF pathway, luminescence activity was measured with standard laboratory plate reader immediately after addition 10 μl of the medium to 50 μl (or 40 μl) of luminescence reagent (Invivogen, cat. No. rep-qlc2). To verify activity of NF-κB pathway, 20 μl (or 10 μl) of the medium was mixed with 80 μl of a detection medium (Invivogen, cat. No. rep-qb2) and incubated for 2 hours (or 1 hour) at 37° C. in a humidified atmosphere containing 5% CO2. Next, absorbance at 630 nm (or 655 nm) was recorded using standard laboratory plate reader.
# [2] = tested on: NF-κB pathway in THP-1 dual cells; experiment: THP-1 Dual reporter assay, NF-κB pathway (SEAP); format: cell-based; settings: Homo sapiens, THP1-Dual; 18 h stimulation, absorbance; read-out: THP1 Dual EC50 (μM) NFkB
# Procedure: as §1
# human STING, sequence (Q86WV6 whole entry H232R): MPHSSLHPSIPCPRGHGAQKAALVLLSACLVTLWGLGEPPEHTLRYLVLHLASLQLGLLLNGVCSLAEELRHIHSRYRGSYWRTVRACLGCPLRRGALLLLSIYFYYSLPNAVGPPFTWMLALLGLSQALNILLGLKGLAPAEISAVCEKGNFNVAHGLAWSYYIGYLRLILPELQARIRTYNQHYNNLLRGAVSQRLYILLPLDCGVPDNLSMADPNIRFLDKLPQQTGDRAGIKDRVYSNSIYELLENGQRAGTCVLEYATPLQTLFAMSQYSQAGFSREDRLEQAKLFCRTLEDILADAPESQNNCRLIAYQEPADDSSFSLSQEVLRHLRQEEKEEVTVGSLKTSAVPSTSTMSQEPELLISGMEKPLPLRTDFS
Structure (SMILES),hSTING FTS binding assay (ΔT C.°) (human STING),EC50 [1] [µM],EC50 [2] [µM]
"Cc1cc(CN(Cc2cn(C3CC3)c3cc(N4CCN(C)CC4)c(F)cc3c2=O)[C@H]2CCCN(c3cccnc3)C2)ccn1 [Example 10, 1-cyclopropyl-6-fluoro-7-(4-methylpiperazin-1-yl)-3-({[(2-methylpyridin-4-yl)methyl][(3S)-1-(pyridin-3-yl)piperidin-3-yl]amino}methyl)-1,4-dihydroquinolin-4-one]",++ (ΔTm>10° C.),≤ 1,≤ 1
"COc1cc(CN(Cc2cn(C3CC3)c3cc(F)c(F)cc3c2=O)[C@H]2CCCN(c3cccnc3)C2)ccn1 [Example 11, 1-cyclopropyl-6,7-difluoro-3-({[(2-methoxypyridin-4-yl)methyl][(3S)-1-(pyridin-3-yl)piperidin-3-yl]amino}methyl)-1,4-dihydroquinolin-4-one]",++ (ΔTm>10° C.),≤ 1,≤ 1
"Cc1cc(CN(Cc2cn(C3CC3)c3cc(F)c(F)cc3c2=O)[C@H]2CCCN(c3cccnc3)C2)ccn1 [Example 12, 1-cyclopropyl-6,7-difluoro-3-({[(2-methylpyridin-4-yl)methyl][(3S)-1-(pyridin-3-yl)piperidin-3-yl]amino}methyl)-1,4-dihydroquinolin-4-one]",++ (ΔTm>10° C.),≤ 1,≤ 1
"Cc1cc(CN(Cc2cn(C)c3ccccc3c2=O)[C@H]2CCCN(c3ccccn3)C2)ccn1 [Example 13, 1-methyl-3-({[(2-methylpyridin-4-yl)methyl][(3S)-1-(pyridin-2-yl)piperidin-3-yl]amino}methyl)-1,4-dihydroquinolin-4-one]",+ (ΔTm<10° C.),1 to 10,1 to 10
"Cc1cc(CN(Cc2cn(C)c3ccccc3c2=O)[C@H]2CCCN(c3ccc([N+](=O)[O-])nc3)C2)ccn1 [Example 14, 1-methyl-3-({[(2-methylpyridin-4-yl)methyl][(3S)-1-(6-nitropyridin-3-yl)piperidin-3-yl]amino}methyl)-1,4-dihydroquinolin-4-one]",+ (ΔTm<10° C.),1 to 10,≥ 10
"Cc1cc(CN(Cc2cn(C)c3ccccc3c2=O)[C@H]2CCCN(c3ccncc3Br)C2)ccn1 [Example 15, 3-({[(3S)-1-(3-bromopyridin-4-yl)piperidin-3-yl][(2-methylpyridin-4-yl)methyl]amino}methyl)-1-methyl-1,4-dihydroquinolin-4-one]",+ (ΔTm<10° C.),1 to 10,1 to 10
"Cc1cc(CN(Cc2cn(C)c3ccccc3c2=O)[C@H]2CCCN(c3ccc(F)nc3)C2)ccn1 [Example 16, 3-({[(3S)-1-(6-fluoropyridin-3-yl)piperidin-3-yl][(2-methylpyridin-4-yl)methyl]amino}methyl)-1-methyl-1,4-dihydroquinolin-4-one]",+ (ΔTm<10° C.),1 to 10,1 to 10
"Cc1cc(CN(Cc2cn(C)c3cc(N4CCN(C)CC4)ccc3c2=O)[C@H]2CCCN(c3cccnc3)C2)ccn1 [Example 18, 1-methyl-7-(4-methylpiperazin-1-yl)-3-({[(2-methylpyridin-4-yl)methyl][(3S)-1-(pyridin-3-yl)piperidin-3-yl]amino}methyl)-1,4-dihydroquinolin-4-one]",++ (ΔTm>10° C.),≤ 1,≤ 1
"COc1cc(N2CCC[C@H](N(Cc3ccnc(C)c3)Cc3cn(C)c4ccccc4c3=O)C2)ccn1 [Example 20, 3-({[(3S)-1-(2-methoxypyridin-4-yl)piperidin-3-yl][(2-methylpyridin-4-yl)methyl]amino}methyl)-1-methyl-1,4-dihydroquinolin-4-one]",+ (ΔTm<10° C.),≥ 10,≥ 10
"CCc1cc(CN(Cc2cn(C)c3ccccc3c2=O)C2CCCN(c3cccnc3)C2)ccn1 (stereo not drawn) [Example 21, 3-({[(2-ethylpyridin-4-yl)methyl][1-(pyridin-3-yl)piperidin-3-yl]amino}methyl)-1-methyl-1,4-dihydroquinolin-4-one]",+ (ΔTm<10° C.),≥ 10,≥ 10
"Cc1cc(CN(Cc2cn(C)c3ccccc3c2=O)[C@H]2CCCN(c3cc(=O)[nH]cn3)C2)ccn1 [Example 22, 1-methyl-3-({[(2-methylpyridin-4-yl)methyl][(3S)-1-(6-oxo-1,6-dihydropyrimidin-4-yl)piperidin-3-yl]amino}methyl)-1,4-dihydroquinolin-4-one]",++ (ΔTm>10° C.),≥ 10,≥ 10
"Cc1cc(CN(Cc2cn(C)c3cc(Br)ccc3c2=O)[C@H]2CCCN(c3cccnc3)C2)ccn1 [Example 23, 7-bromo-1-methyl-3-({[(2-methylpyridin-4-yl)methyl][(3S)-1-(pyridin-3-yl)piperidin-3-yl]amino}methyl)-1,4-dihydroquinolin-4-one]",++ (ΔTm>10° C.),≤ 1,≤ 1
"Cc1cc(CN(Cc2cn(C)c3ccccc3c2=O)[C@@H]2CN(c3cccnc3)CC[C@H]2O)ccn1 [Example 24, 3-({[(3R,4R)-4-hydroxy-1-(pyridin-3-yl)piperidin-3-yl][(2-methylpyridin-4-yl)methyl]amino}methyl)-1-methyl-1,4-dihydroquinolin-4-one]",+ (ΔTm<10° C.),≥ 10,≥ 10
"Cc1cc(CN(Cc2cn(C)c3cc(Cl)c(F)cc3c2=O)[C@H]2CCCN(c3cccnc3)C2)ccn1 [Example 25, 7-chloro-6-fluoro-1-methyl-3-({[(2-methylpyridin-4-yl)methyl][(3S)-1-(pyridin-3-yl)piperidin-3-yl]amino}methyl)-1,4-dihydroquinolin-4-one]",++ (ΔTm>10° C.),≤ 1,≤ 1
"Cc1cc(CN(Cc2cn(C)c3ccccc3c2=O)[C@H]2C[C@H](F)CN(c3cccnc3)C2)ccn1 [Example 26, 3-({[(3S,5S)-5-fluoro-1-(pyridin-3-yl)piperidin-3-yl][(2-methylpyridin-4-yl)methyl]amino}methyl)-1-methyl-1,4-dihydroquinolin-4-one]",++ (ΔTm>10° C.),≤ 1,≤ 1
"Cc1cc(CN(Cc2cn(C)c3ccccc3c2=O)[C@H]2C[C@@H](C)CN(c3cccnc3)C2)ccn1 [Example 27, 1-methyl-3-({[(3S,5R)-5-methyl-1-(pyridin-3-yl)piperidin-3-yl][(2-methylpyridin-4-yl)methyl]amino}methyl)-1,4-dihydroquinolin-4-one]",+ (ΔTm<10° C.),≥ 10,≥ 10
"COc1cc(CN(Cc2cn(C3CC3)c3cc(Cl)c(F)cc3c2=O)[C@H]2CCCN(c3cccnc3)C2)ccn1 [Example 28, 7-chloro-1-cyclopropyl-6-fluoro-3-({[(2-methoxypyridin-4-yl)methyl][(3S)-1-(pyridin-3-yl)piperidin-3-yl]amino}methyl)-1,4-dihydroquinolin-4-one]",++ (ΔTm>10° C.),≤ 1,≤ 1
"COC(=O)C1CCN(c2ccc3c(=O)c(CN(Cc4ccnc(C)c4)[C@H]4CCCN(c5cccnc5)C4)cn(C)c3c2)CC1 [Example 29, Methyl 1-[1-methyl-3-({[(2-methylpyridin-4-yl)methyl][(3S)-1-(pyridin-3-yl)piperidin-3-yl]amino}methyl)-4-oxo-1,4-dihydroquinolin-7-yl]piperidine-4-carboxylate]",++ (ΔTm>10° C.),≤ 1,≤ 1
"Cc1cc(CN(Cc2cn(C)c3ccccc3c2=O)[C@H]2CCCN(c3cc[nH]c(=O)c3)C2)ccn1 [Example 30, 1-methyl-3-({[(2-methylpyridin-4-yl)methyl][(3S)-1-(2-oxo-1,2-dihydropyridin-4-yl)piperidin-3-yl]amino}methyl)-1,4-dihydroquinolin-4-one]",+ (ΔTm<10° C.),≥ 10,≥ 10
"COc1cc(CN(Cc2cn(C3CC3)c3cc(F)c(F)cc3c2=O)[C@H]2CCCN(c3ccc(C)nc3)C2)ccn1 [Example 31, 1-cyclopropyl-6,7-difluoro-3-({[(2-methoxypyridin-4-yl)methyl][(3S)-1-(6-methylpyridin-3-yl)piperidin-3-yl]amino}methyl)-1,4-dihydroquinolin-4-one]",++ (ΔTm>10° C.),≤ 1,≤ 1
